What was measured:
[1] = biological target: T1, hNav1.7 (Homo sapiens (Human), UniProt Q15858); assay: Tritiated compound binding to membranes from cells heterologously expressing hNav1.7 and the β1 subunit (LBA); settings: competitive binding vs [3H]compound, membranes with hNav1.7 and β1 subunit; read-out: Nav1.7 LBA EVO IC50
Protocol: Example 39A. Tritiated Compound Binding to Membranes Isolated from Cells that Heterologously Express hNav1.7 and the β1 Subunit
Preparation of membranes containing recombinantly expressed sodium channels: Frozen recombinant cell pellets were thawed on ice and diluted to 4 times the cell pellet weight with ice cold 50 mM Tris HCl, pH 7.4 buffer. The cell suspensions were homogenized on ice using a motorized glass dounce homogeniser. Homogenates were further diluted 8.4 times with ice cold 50 mM Tris HCl, pH 7.4 buffer and then centrifuged at 200×g at 4° C. for 15 min. The supernatants were collected and centrifuged at 10000×g at 4° C. for 50 min. The pellets were then re-suspended in 100 mM NaCl, 20 mM Tris HCl, pH 7.4 buffer containing 1% v/v protease inhibitors (Calbiochem) and re-homogenized on ice. The homogenized membranes were then processed through a syringe equipped with a 26 gauge needle. Protein concentrations were determined by Bradford Assay and the membranes were stored at −80° C.
Saturation experiments. A competitive NaV1.7 inhibitor having a methyl group was tritiated. Three tritiums were incorporated in place of methyl hydrogens to generate [^3H]compound. Binding of this radioligand was performed in 5 mL borosilicate glass test tubes at room temperature. Binding was initiated by adding membranes to increasing concentrations of [^3H]compound in 100 mM NaCl, 20 mM Tris HCl, pH 7.4 buffer containing 0.01% w/v bovine serum albumin (BSA) for 18 h. Non-specific binding was determined in the presence of 1 μM unlabeled compound. After 18 h, the reactants were filtered through GF/C glass fiber filters presoaked in 0.5% w/v polyethylene imine. Filters were washed with 15 mL ice cold 100 mM NaCl, 20 mM Tris HCl, pH7.4 buffer containing 0.25% BSA to separate bound from free ligand. [^3H]compound bound to filters was quantified by liquid scintillation counting.
Binding reactions were performed in 96-well polypropylene plates at room temperature for 18 h. In 360 μL, membranes were incubated with 100 pM [^3H]compound and increasing concentrations of Test Compound. Non-specific binding was defined in the presence of 1 μM unlabeled compound. Reactions were transferred and filtered through 96-well glass fiber/C filter plates presoaked with 0.5% polyethylene imine. The filtered reactions were washed 5 times with 200 μL ice cold buffer containing 0.25% BSA. Bound radioactivity was determined by liquid scintillation counting.
For saturation experiments, non-specific binding was subtracted from total binding to provide specific binding and these values were recalculated in terms of pmol ligand bound per mg protein. Saturation curves were constructed and dissociation constants were calculated using the single site ligand binding model: Beq=(Bmax*X)/(X+Kd), where Beq is the amount of ligand bound at equilibrium, Bmax is the maximum receptor density, Kd is the dissociation constant for the ligand, and X is the free ligand concentration. For competition studies percent inhibition was determined and IC50 values were calculated using a 4 parameter logistic model (% inhibition=(A+((B−A)/(1+((x/C)^D)))) using XLfit, where A and B are the maximal and minimum inhibition respectively, C is the IC50 concentration and D is the (Hill) slope.
Example 39B. Tritiated Compound Binding to Membranes Isolated from Cells that Heterologous Express hNav1.7 and the β1 Subunit
Following the procedure described in Example 39A, and making modifications as required to: centrifuge supernatants at 100000×g instead of 10000×g; re-suspend pellets in a buffer containing 0.01% BSA in addition to 100 mM NaCl, 20 mM Tris HCl, pH 7.4 buffer, and 1% v/v […]; and storing membranes at −80° C. in single use aliquots instead of pooled.
Saturation experiments: Following the procedure described in Example 243A, and making modifications as required to incubate [3H]compound for 3 hours instead of 18 hours. […]

[2] = biological target: T1, hNav1.7; assay: Electrophysiological assay (EP), voltage clamp on Syncropatch 384PE; format: cell-based; settings: CHO cells expressing Nav1.7, holding potential −50 mV, 7.5 min compound incubation; read-out: EP_SP hNav1.7 EVO IC50
From the text: Example 39C. Electrophysiological Assay (EP) (In Vitro Assay)
Patch voltage clamp electrophysiology allows for the direct measurement and quantification of block of voltage-gated sodium channels (NaV's), and allows the determination of the time- and voltage-dependence of block which has been interpreted as differential binding to the resting, open, and inactivated states of the sodium channel (Hille, B., Journal of General Physiology (1977), 69: 497-515).
The following voltage clamp electrophysiology studies were performed on representative compounds using cells heterologously expressing Nav1.7 or Nav1.5 channels. cDNAs for Nav1.7 (NM_002977) and Nav1.5 (AC137587) were stably expressed in Chinese Hamstr Ovary (CHO) cells and CHL (Chinese Hamster Lung) cells respectively. Sodium currents were measured in the whole-cell configuration using Syncropatch 384PE (Nanlon Technologies, Germany). 1NPC®-384 chips with custom medium resistance and single hole mode are used. Internal solution consists of (in mM): 110 […], 10 CsCl, 20 EGTA, and 10 Hepes (pH adjusted to 7.2); and external solution contains (in mM): 60 NMDG, 80 NaCl, 4 KCl, 1 MgCl2, 2 CaCl2, 2 D-Glucose monohydrate, 10 Hepes (pH adjusted to 7.4 with NaOH).
After system flushing, testing compounds are dissolved in external solution containing 0.1% Pluronic F-127. The chip is moved into the measuring head and the instrument primes the chip with external and internal solutions. 10 l cells are added to the chip from a cell hotel, and a negative pressure of −50 mBar is applied to form a seal. Following treatment with seal enhancer solution and wash-off with external solution, negative pressure of −250 mbar is applied for 1 second to achieve the whole-cell configuration, followed by three washing steps in external solution. 20 µl of compounds is added to 40 µl in each well (1:3 dilution of compounds), and after mixing, 20 l is removed so the volume is retained at 40 ul. After approximately 13 minutes recordings, 20 µl/well of 2 uM TTX, or 333 uM Tetracaine (for Nav1.5) is added to achieve full block.
For voltage protocol, an holding potential of −50 mV is applied during the whole experiment. A depolarizing step is applied to −10 mV for 10 ms, followed by a hyperpolarization step to −150 mV for 20 ms to allow channel recovery from inactivation. A second depolarizing step is applied from −150 mV to −10 mV for 10 ms, where currents were measured to derive blocking effects of compounds. Inhibition is determined based on 7.5 min of compound incubation.

Row | Compound | IC50 [1] [nM] | IC50 [2] [nM]
1 | COc1cc(-c2cc(C(F)(F)F)ccc2F)c(F)cc1N1C(=O)CO[C@H]2CN(S(=O)(=O)Nc3ccon3)CC[C@@H]21 [Example 8, (4aS,8aS)-1-(2,2′-difluoro-5-methoxy-5′-(trifluoromethyl)-[1,1′-biphenyl]-4-yl)-N-(isoxazol-3-yl)-2-oxohexahydro-1H-pyrido[3,4-b][1,4]oxazine-6(7H)-sulfonamide] | 82.8 | 4.92
2 | COc1cc(-c2cccc(F)c2)c(F)cc1N1C(=O)CO[C@@H]2CN(S(=O)(=O)Nc3ccon3)CC[C@H]21 [Example 9, (4aR,8aR)-1-(2,3′-difluoro-5-methoxy-[1,1′-biphenyl]-4-yl)-N-(isoxazol-3-yl)-2-oxohexahydro-1H-pyrido[3,4-b][1,4]oxazine-6(7H)-sulfonamide] | 2000 | 19.4
3 | COc1cc(-c2cccc(F)c2)c(F)cc1N1C(=O)CO[C@H]2CN(S(=O)(=O)Nc3ccon3)CC[C@@H]21 [Example 10, (4aS,8aS)-1-(2,3′-difluoro-5-methoxy-[1,1′-biphenyl]-4-yl)-N-(isoxazol-3-yl)-2-oxohexahydro-1H-pyrido[3,4-b][1,4]oxazine-6(7H)-sulfonamide] | 716 | 47.8
4 | COc1cc(-c2cccc(C(F)(F)F)c2F)c(F)cc1N1C(=O)CO[C@@H]2CN(S(=O)(=O)Nc3ccon3)CC[C@H]21 [Example 11, (4aR,8aR)-1-(2,2′-difluoro-5-methoxy-3′-(trifluoromethyl)-[1,1′-biphenyl]-4-yl)-N-(isoxazol-3-yl)-2-oxohexahydro-1H-pyrido[3,4-b][1,4]oxazine-6(7H)-sulfonamide] | 230 | 11.2
5 | COc1cc(-c2cccc(C(F)(F)F)c2F)c(F)cc1N1C(=O)CO[C@H]2CN(S(=O)(=O)Nc3ccon3)CC[C@@H]21 [Example 12, (4aS,8aS)-1-(2,2′-difluoro-5-methoxy-3′-(trifluoromethyl)-[1,1′-biphenyl]-4-yl)-N-(isoxazol-3-yl)-2-oxohexahydro-1H-pyrido[3,4-b][1,4]oxazine-6(7H)-sulfonamide] | 131 | 6.83
6 | COc1cc(-c2cccc(Cl)c2)c(F)cc1N1C(=O)CO[C@@H]2CN(S(=O)(=O)Nc3ccon3)CC[C@H]21 [Example 13, (4aR,8aR)-1-(3′-chloro-2-fluoro-5-methoxy-[1,1′-biphenyl]-4-yl)-N-(isoxazol-3-yl)-2-oxohexahydro-1H-pyrido[3,4-b][1,4]oxazine-6(7H)-sulfonamide] | 471 | 11.7
7 | COc1cc(-c2cccc(Cl)c2)c(F)cc1N1C(=O)CO[C@H]2CN(S(=O)(=O)Nc3ccon3)CC[C@@H]21 [Example 14, (4aS,8aS)-1-(3′-chloro-2-fluoro-5-methoxy-[1,1′-biphenyl]-4-yl)-N-(isoxazol-3-yl)-2-oxohexahydro-1H-pyrido[3,4-b][1,4]oxazine-6(7H)-sulfonamide] | 332 | 7.21
8 | COc1cc(-c2cccc(C(F)F)c2)c(F)cc1N1C(=O)CO[C@@H]2CN(S(=O)(=O)Nc3ccon3)CC[C@H]21 [Example 15, (4aR,8aR)-1-(3′-(difluoromethyl)-2-fluoro-5-methoxy-[1,1′-biphenyl]-4-yl)-N-(isoxazol-3-yl)-2-oxohexahydro-1H-pyrido[3,4-b][1,4]oxazine-6(7H)-sulfonamide] | 2000 | 46.7
9 | COc1cc(-c2cccc(C(F)F)c2)c(F)cc1N1C(=O)CO[C@H]2CN(S(=O)(=O)Nc3ccon3)CC[C@@H]21 [Example 16, (4aS,8aS)-1-(3′-(difluoromethyl)-2-fluoro-5-methoxy-[1,1′-biphenyl]-4-yl)-N-(isoxazol-3-yl)-2-oxohexahydro-1H-pyrido[3,4-b][1,4]oxazine-6(7H)-sulfonamide] | 1390 | 49.5
10 | COc1cc(-c2cccc(C(F)(F)F)c2)ccc1N1C(=O)CO[C@@H]2CN(S(=O)(=O)Nc3ccon3)CC[C@H]21 [Example 17, (4aR,8aR)-N-(isoxazol-3-yl)-1-(3-methoxy-3′-(trifluoromethyl)-[1,1′-biphenyl]-4-yl)-2-oxohexahydro-1H-pyrido[3,4-b][1,4]oxazine-6(7H)-sulfonamide] | 214 | 6.03
11 | COc1cc(-c2cccc(C(F)(F)F)c2)ccc1N1C(=O)CO[C@H]2CN(S(=O)(=O)Nc3ccon3)CC[C@@H]21 [Example 18, (4aS,8aS)-N-(isoxazol-3-yl)-1-(3-methoxy-3′-(trifluoromethyl)-[1,1′-biphenyl]-4-yl)-2-oxohexahydro-1H-pyrido[3,4-b][1,4]oxazine-6(7H)-sulfonamide] | 346 | 5.86
12 | COc1cc(-c2cccc(C(F)(F)F)c2)cc(F)c1N1C(=O)CO[C@@H]2CN(S(=O)(=O)Nc3ccon3)CC[C@H]21 [Example 19, (4aR,8aR)-1-(3-fluoro-5-methoxy-3′-(trifluoromethyl)-[1,1′-biphenyl]-4-yl)-N-(isoxazol-3-yl)-2-oxohexahydro-1H-pyrido[3,4-b][1,4]oxazine-6(7H)-sulfonamide] | 831 | 50
13 | COc1cc(-c2cccc(C(F)(F)F)c2)cc(F)c1N1C(=O)CO[C@H]2CN(S(=O)(=O)Nc3ccon3)CC[C@@H]21 [Example 20, (4aS,8aS)-1-(3-fluoro-5-methoxy-3′-(trifluoromethyl)-[1,1′-biphenyl]-4-yl)-N-(isoxazol-3-yl)-2-oxohexahydro-1H-pyrido[3,4-b][1,4]oxazine-6(7H)-sulfonamidede] | 2000 | 39.8

Source: US10947251B2, “Therapeutic compounds and methods of use thereof” (GENENTECH, INC., priority 2018, dated 2021)
